Experimental data from US20260306485A1, “COMPOSITIONS AND METHODS FOR THE TREATMENT OF CONGENITAL ADRENAL HYPERPLASIA” (CRINETICS PHARMACEUTICALS, INC., priority 2023, published 2026).

Assays:
Format in all cases: in vivo, human
[1] = tested on: serum androstenedione (A4); assay: Phase 2 CAH study, Cohort 1 initial analysis: morning serum androstenedione (A4); conditions: 80 mg QD oral; for A4 reduction (mean±SD): morning, baseline 116 to 604 ng/dL
Description: The primary efficacy objective is to evaluate the efficacy of CRN04894, measured by the change from baseline in serum androstenedione (A4), with the primary efficacy endpoint being the change from baseline in the morning (before 11:00 AM) serum A4 at week 12.
(§1) Up to approximately 30 participants will be enrolled in the study. Each cohort will enroll at least 6 participants, with a possible expansion of up to an additional 6 participants in cohorts 1 and 2, to a maximum of 12 evaluable participants in those cohorts. The treatment duration will be up to Day 84 (12 Weeks) per participant. The total study duration will be up to 140 days (up to 4 weeks of screening, 12 weeks of treatment, and 4 weeks of follow-up) per participant. The visit frequency will be at Screening (2 visits), on Day 1 (Baseline), and at Weeks 2 (Day 14), 6 (Day 42), and 12 (Day 84). A Safety Follow-up Visit will occur 2 weeks following the last dose of CRN04894 (Week 14; Day 98), and a telephone call to collect any adverse events (AEs) will occur at 4 weeks after the last dose of CRN04894 (Week 16, Day 112). The study design is discussed in detail below.
(§2) Participants in all cohorts will continue their preexisting glucocorticoid replacement dosing regimens/doses throughout the study. In addition, starting the night of Day 1 and ending the night before the Week 12/end of treatment (EOT) visit, each cohort will administer CRN04894 between 22:00-24:00 (at approximately the same time each night) once daily (QD) before sleep.
(§3) Participants in Cohort 1 will receive 80 mg of CRN04894 QD. After at least 3 participants have completed 2 weeks of dosing with 80 mg of CRN04894 QD in Cohort 1, an interim analysis evaluating PD, PK, efficacy, and safety will be reviewed by the Safety Review Committee (SRC). If it is safe to continue, the SRC will recommend dosing of 120 mg of CRN04894 in Cohort 2. However, the SRC can recommend a lower dose (i.e., 40 mg of CRN04894 QD) in Cohort 2 based on review of safety data. The SRC also has the option to recommend increasing enrollment up to a total of 12 participants each in Cohorts 1 and/or 2. In this situation, expanded enrollment in the cohort will be completed, and data from the expanded cohort will be reviewed by the SRC prior to enrollment in the subsequent cohort.
(§4) A pharmacodynamic biomarker panel will be drawn. The biomarker panel will include the following: • 17-hydroxyprogesterone (17-OHP); • Adrenocorticotropic hormone (ACTH) (plasma); • Testosterone; • Androstenedione (A4); • Dehydroepiandrosterone (DHEA); • Dehydroepiandrosterone sulfate (DHEA-S); • 11-deoxycorticosterone (11-DOC); • 21-deoxycortisol; • 11β-hydroxyandrostenedione (11-OHA4); • 11-ketoandrostenedione (11-ketoA4); • 11β-hydroxytestosterone (11-OHT); • 11-ketotestosterone (11-ketoT); • Aldosterone; and • Renin.
(§5) Visits 2-7: Prior to receiving the morning GC replacement dose, a total of 2 blood draws (approximately 1 hour apart) for PD biomarkers will be drawn. The drawing of the PD biomarkers should be one of the first visit activities performed at the start of the visit. Visits should start as early in the morning as possible (preferably 07:00-08:00), so as to minimize any delay in administration of the morning GC dose and the timing of each study visit should be as consistent as possible. The second set of PD biomarkers should be drawn no later than 11:00 am.
(§6) The initial analysis summarizes the data of four participates (n=4) of Cohort 1 who received 80 mg of CRN04894 QD. There were three female/women participants (n=3) and one male/men participant (n=1).
(§7) Cohort 1 initial analysis of % changes in values from baseline of morning serum A4, morning serum 17-OHP, morning serum testosterone in females, morning serum testosterone in males, and morning serum A4/testosterone in males are presented in Table 4 below. These changes from baseline are also depicted in FIG. 1, FIG. 2, FIG. 4, FIG. 5, and FIG. 10, respectively. […]

[2] = tested on: serum 17-hydroxyprogesterone (17-OHP); assay: Phase 2 CAH study, Cohort 1 initial analysis: morning serum 17-hydroxyprogesterone (17-OHP); conditions: 80 mg QD oral; for 17-OHP reduction (mean±SD): baseline 4740 to 6905 ng/dL
Description: The secondary efficacy objective is to evaluate the efficacy of CRN04894, measured by the change from baseline in serum 17-hydroxyprogesterone (17-OHP), with the secondary efficacy endpoint being the change from baseline in the morning (before 11:00 AM) serum 17-OHP at week 12.
as §1, §2, §3, §4, §5, §6, §7

[3] = tested on: serum testosterone (female/women); assay: Phase 2 CAH study, Cohort 1 initial analysis: morning serum testosterone, female participants; conditions: 80 mg QD oral; for testosterone reduction (mean±SD), female participants: morning, baseline 114 ng/dL
Description: as §1, §2, §3, §4, §5, §6
(§8) Cohort 1 initial analysis of % changes in values from baseline of morning serum A4, morning serum 17-OHP, morning serum testosterone in females, morning serum testosterone in males, and morning serum A4/testosterone in males are presented in Table 4 below. These changes from baseline are also depicted in FIG. 1, FIG. 2, FIG. 4, FIG. 5, and FIG. 10, respectively.
(§9) Patients (aged ≥18 to 75, ≥16 years in USA) with classical CAH on a stable dose of glucocorticoid replacement for at least six months were enrolled and received 80 mg once daily, oral CRN04894 for 12 weeks followed by a four-week washout. […]

[4] = tested on: serum testosterone (male/men); assay: Phase 2 CAH study, Cohort 1 initial analysis: morning serum testosterone, male participants; conditions: 80 mg QD oral, n=1
Description: as §1, §2, §3, §4
(§10) Visits 2-7: Prior to receiving the morning GC replacement dose, a total of 2 blood draws (approximately 1 hour apart) for PD biomarkers will be drawn. […]

[5] = tested on: serum A4/testosterone (male/men); assay: Phase 2 CAH study, Cohort 1 initial analysis: morning serum A4/testosterone, male participants; conditions: 80 mg QD oral, n=1; for A4/T ratio in the patient: baseline 0.3, normal <0.2
Description: as §1, §2, §3, §4, §5, §6, §8, §9

[6] = tested on: plasma adrenocorticotropic hormone (ACTH); assay: Phase 2 CAH study, Cohort 1 initial analysis: morning plasma ACTH; conditions: 80 mg QD oral; for variation in ACTH levels during treatment: morning, baseline 155 to 1009 pg/mL
Description: as §1, §2, §3, §4, §10

[7] = Phase 2 CAH study, Cohort 1 initial analysis: menstruation; conditions: 80 mg QD oral; three female participants in cohort
Description: as §1, §2
Participants in Cohort 1 will receive 80 mg of CRN04894 QD. […]

CCOc1ccccc1-c1ccc(N2CCN(C(=O)C3(C(F)(F)F)CCC3)C[C@H]2CC)c(C(=O)N[C@@H]2CN3CCC2CC3)n1 [CRN04894, N-[(3S)-1-Azabicyclo[2.2.2]octan-3-yl]-6-(2-ethoxyphenyl)-3-[(2R)-2-ethyl-4-[1-(trifluoromethyl)cyclobutanecarbonyl]-piperazin-1-yl]pyridine-2-carboxamide]
% Change in morning serum A4 ([1]; Mean, Week 2, n=4): −86%
% Change in morning serum A4 ([1]; Mean, Week 6, n=4): −90%
% Change in morning serum A4 ([1]; Mean, Week 12, n=2): −88%
% Change in morning serum A4 ([1]; Median, Week 2, n=4): −88%
% Change in morning serum A4 ([1]; Median, Week 6, n=4): −94%
% Change in morning serum A4 ([1]; Median, Week 12, n=2): −88%
A4 reduction (mean±SD) ([1]; Week 2, n=4): 86%±10%
A4 reduction (mean±SD) ([1]; Week 6, n=4): 90%±9%
A4 reduction (mean±SD) ([1]; Week 12, n=2): 88%±15%
A4 reduction, onset and maintenance ([1]; all participants): rapid and profound A4 reduction within two weeks, which were maintained for the duration of therapy
A4 levels relative to upper limit of normal ([1]; all visits following treatment, normal 30-200 ng/dL females, 40-150 ng/dL males): all A4 levels ending below the upper limit of normal (<ULN) at all visits following treatment
% Change in morning 17-OHP ([2]; Mean, Week 2, n=4): −96%
% Change in morning 17-OHP ([2]; Mean, Week 6, n=4): −97%
% Change in morning 17-OHP ([2]; Mean, Week 12, n=2): −83%
% Change in morning 17-OHP ([2]; Median, Week 2, n=4): −96%
% Change in morning 17-OHP ([2]; Median, Week 6, n=4): −97%
% Change in morning 17-OHP ([2]; Median, Week 12, n=2): −83%
17-OHP reduction (mean±SD) ([2]; Week 2, n=4): 96%±2%
17-OHP reduction (mean±SD) ([2]; Week 6, n=4): 97%±0.3%
17-OHP reduction (mean±SD) ([2]; Week 12, n=2): 83%±22%
17-OHP reduction, onset and maintenance ([2]; all participants): rapid and profound 17-OHP reduction within two weeks, which were maintained for the duration of therapy
% Change in morning testosterone (female/women) ([3]; Mean, Week 2, n=3): −61%
% Change in morning testosterone (female/women) ([3]; Mean, Week 6, n=3): −65%
% Change in morning testosterone (female/women) ([3]; Mean, Week 12, n=2): −97%
% Change in morning testosterone (female/women) ([3]; Median, Week 2, n=3): −86%
% Change in morning testosterone (female/women) ([3]; Median, Week 6, n=3): −96%
% Change in morning testosterone (female/women) ([3]; Median, Week 12, n=2): −97%
testosterone reduction (mean±SD), female participants ([3]; Week 2, n=3): 61%±53%
testosterone reduction (mean±SD), female participants ([3]; Week 6, n=3): 65%±56%
testosterone reduction (mean±SD), female participants ([3]; Week 12, n=2): 97%±1%
% Change in morning testosterone (male/men) ([4]; Mean, Week 2): 9%
% Change in morning testosterone (male/men) ([4]; Mean, Week 6): 11%
% Change in morning testosterone (male/men) ([4]; Median, Week 2): 9%
% Change in morning testosterone (male/men) ([4]; Median, Week 6): 11%
% Change in morning A4/testosterone (male/men) ([5]; Mean, Week 2): −73%
% Change in morning A4/testosterone (male/men) ([5]; Mean, Week 6): −79%
% Change in morning A4/testosterone (male/men) ([5]; Median, Week 2): −73%
% Change in morning A4/testosterone (male/men) ([5]; Median, Week 6): −79%
A4/T ratio in the patient ([5]; week 2): 0.08
A4/T ratio in the patient ([5]; week 6): 0.06
ACTH levels, trend during treatment ([6]; in words): Modest variations in ACTH levels without a consistent directional trend
variation in ACTH levels during treatment ([6]; Week 2, n=4): −25%±57%
variation in ACTH levels during treatment ([6]; Week 6, n=4): 51%±87%
variation in ACTH levels during treatment ([6]; Week 12, n=2): −13%±67%
menstruation in female participants [7]: Two female participants in this cohort menstruated for the first time in over 2 years
